Data on five molecules can be found in PMC4046051, “Two M-T hook residues greatly improve the antiviral activity and resistance profile of the HIV-1 fusion inhibitor SC29EK” (Retrovirology, 2014).

Common to all, as to assay type: cell-based
For one assay, the system named is wild-type HIV-1NL4-3. The following applies: wild-type HIV-1NL4-3, 100 TCID50, TZM-bl cells, two days, luciferase; mean ± SD of three independent experiments; SD; read-out: IC50 Replication. As to the method:
The inhibition of peptides on HIV-1 replication was determined by a molecular cloned wild-type HIV-1NL4–3. In brief, the virus stock was harvested and quantified 48 h post-transfection. 100 TCID50 viruses were used to infect TZM-bl cells in the presence or absence of serially diluted peptides. Two days post-infection, the cells were harvested and lysed in reporter lysis buffer and the luciferase activity was measured as described above.

Another assay concerns HIV-1NL4-3 pseudovirus. The following applies: 100 TCID50, TZM-bl cells, 48 h, luciferase, mean ± SD of three independent experiments, SD, read-out: IC50 Entry. As to the method: (§1) The inhibition of peptides on the HIV-1 entry was determined by single-cycle infection assay as described previously. Briefly, HIV-1 pseudovirus was generated by cotransfecting 293 T cells with an Env-expressing plasmid and a backbone plasmid pSG3^Δenv that encodes Env-defective, luciferase-expressing HIV-1 genome. The supernatants were harvested and filtered 48 h after transfection and 50% tissue culture infectious dose (TCID50) was determined in TZM-bl cells. The peptides were prepared with 3-fold dilutions and mixed with 100 TCID50 viruses and then incubated 1 h at room temperature. The mixture was added to TZM-bl cells (10^4/well) and incubated 48 h at 37°C. The luciferase activity was measured using luciferase assay reagents and a Luminescence Counter (Promega).

Assay [1] deals with molecular clone of HIV-1NL4-3. The experiment in a line: In vitro selection of HIV-1 resistance in MT-4 cells. The settings on record: 1.5-2 fold escalating concentrations, 22 passages in 4 months. As for the experimental part: The in vitro selection of HIV-1 resistance to peptide inhibitors was performed as described previously. Briefly, MT-4 cells were seeded at 1 × 10^4 in RPMI 1640 medium containing 10% fetal bovine serum on 12-well plates. The molecular clone of HIV-1NL4–3 was used to infect the cells in the presence or absence of diluted peptide inhibitors (SC29EK, MT-SC29EK, SC22EK and MT-SC22EK). The cells were incubated at 37°C with 5% CO2 until an extensive cytopathic effect was observed. The culture supernatants were harvested and used for next passage on fresh MT-4 cells with 1.5-2 fold increasing concentrations of peptide. Cells and supernatant were harvested at regular time points and stored at -80°C.

For the next assay, the system named is HIV-1 NL4-3 WT. In words: Inhibition of T20-resistant HIV-1 variants panel: WT. The following applies: mean ± SD of three independent experiments, SD. As to the method: as §1
The test system of the next assay is HIV-1 NL4-3 Q40H. The experiment in a line: Inhibition of T20-resistant HIV-1 variants: Q40H. The following applies: mean ± SD of three independent experiments, SD. As for the experimental part: as §1
In the next assay the test system is HIV-1 NL4-3 V38A. In words: Inhibition of T20-resistant HIV-1 variants: V38A. The following applies: mean ± SD of three independent experiments, SD. As for the experimental part: as §1
The test system of the next assay is HIV-1 NL4-3 D36S/V38M. The experiment in a line: Inhibition of T20-resistant HIV-1 variants: D36S/V38M. The settings on record: mean ± SD of three independent experiments, SD. As to the method: as §1
Another assay deals with HIV-1 NL4-3 N43K. The experiment in a line: Inhibition of T20-resistant HIV-1 variants: N43K. The settings on record: mean ± SD of three independent experiments, SD. As for the experimental part: as §1
In another assay the test system is HIV-1 NL4-3 V38M. In words: Inhibition of T20-resistant HIV-1 variants: V38M. The following applies: mean ± SD of three independent experiments, SD. As to the method:
as §1

The next assay concerns HIV-1 NL4-3 I37T. In words: Inhibition of T20-resistant HIV-1 variants: I37T. The following applies: mean ± SD of three independent experiments, SD. As for the experimental part:
as §1

In another assay the test system is HIV-1 NL4-3 I37T/N43K. In words: Inhibition of T20-resistant HIV-1 variants: I37T/N43K. The settings on record: mean ± SD of three independent experiments. As for the experimental part:
as §1

Peptide text beside a SMILES is read from it.

As for `CC[C@H](C)[C@H](NC(=O)[C@H](CCC(=O)O)NC(=O)[C@H](CCCNC(=N)N)NC(=O)[C@H](CCC(=O)O)NC(=O)[C@H](Cc1c[nH]c2ccccc12)NC(=O)[C@H](CCC(=O)O)NC(=O)[C@H](CCSC)NC(=O)[C@H](Cc1c[nH]c2ccccc12)NC(=O)[C@@H](NC(=O)[C@H](CCSC)NC(=O)[C@H](CCC(=O)O)NC(=O)[C@H](CC(N)=O)NC(=O)[C@H](Cc1c[nH]c2ccccc12)NC(=O)[C@H](CCC(=O)O)NC(=O)[C@@H](NC(C)=O)C(C)C)[C@@H](C)O)C(=O)N[C@@H](CCC(=O)O)C(=O)N[C@@H](CC(N)=O)C(=O)N[C@@H](Cc1ccc(O)cc1)C(=O)N[C@H](C(=O)N[C@@H](CCCCN)C(=O)N[C@@H](CC(C)C)C(=O)N[C@H](C(=O)N[C@@H](Cc1ccc(O)cc1)C(=O)N[C@@H](CCCCN)C(=O)N[C@H](C(=O)N[C@@H](CC(C)C)C(=O)N[C@@H](CCC(=O)O)C(=O)N[C@@H](CCC(=O)O)C(=O)N[C@@H](CO)C(=O)N[C@@H](CCC(N)=O)C(=O)N[C@@H](CCC(=O)O)C(=O)N[C@@H](CCC(N)=O)C(N)=O)[C@@H](C)CC)[C@@H](C)CC)[C@@H](C)O` [CP32M] (Ac-VEWNEMTWMEWEREIENYTKLIYKILEESQEQ-NH2), the results for the IC50 in the assay on wild-type HIV-1NL4-3 and with HIV-1NL4-3 pseudovirus were 1 ± 0.2 nM and 1.8 ± 0.2 nM, respectively.

Turning to `CC[C@H](C)[C@H](NC(=O)[C@H](CC(C)C)NC(=O)[C@H](CCC(=O)O)NC(=O)[C@H](CCC(=O)O)NC(=O)[C@@H](NC(=O)[C@H](CCCCN)NC(=O)[C@H](CCCCN)NC(=O)[C@@H](NC(=O)[C@H](Cc1ccc(O)cc1)NC(=O)[C@H](CCC(=O)O)NC(=O)[C@H](CCC(=O)O)NC(=O)[C@@H](NC(=O)[C@H](CCCCN)NC(=O)[C@H](CCCCN)NC(=O)[C@H](CC(=O)O)NC(=O)[C@H](Cc1c[nH]c2ccccc12)NC(=O)[C@H](CCC(=O)O)NC(=O)[C@H](CCC(=O)O)NC(=O)[C@H](Cc1c[nH]c2ccccc12)NC(=O)[C@@H](NC(=O)[C@H](CCSC)NC(C)=O)[C@@H](C)O)[C@@H](C)CC)[C@@H](C)O)[C@@H](C)CC)C(=O)N[C@@H](CCCCN)C(=O)N[C@@H](CCCCN)C(=O)N[C@@H](CO)C(N)=O` [MT-SC22EK] (Ac-MTWEEWDKKIEEYTKKIEELIKKS-NH2), the “peptide concentration reached during in vitro selection of resistant virus” value in assay [1] was roughly 100 nM. The IC50 was determined as 1.1 ± 0.1 nM with wild-type HIV-1NL4-3 and 2.1 ± 0.2 nM in the assay on HIV-1NL4-3 pseudovirus.

For the molecule `CC[C@H](C)[C@H](NC(=O)[C@H](CCC(=O)O)NC(=O)[C@H](CCCNC(=N)N)NC(=O)[C@H](CCC(=O)O)NC(=O)[C@H](Cc1c[nH]c2ccccc12)NC(=O)[C@@H](NC(=O)[C@H](CCC(=O)O)NC(=O)[C@H](Cc1c[nH]c2ccccc12)NC(=O)[C@H](CO)NC(C)=O)[C@@H](C)O)C(=O)N[C@@H](CCC(=O)O)C(=O)N[C@@H](CC(N)=O)C(=O)N[C@@H](Cc1ccc(O)cc1)C(=O)N[C@H](C(=O)N[C@@H](CCCNC(=N)N)C(=O)N[C@@H](CCC(N)=O)C(=O)N[C@H](C(=O)N[C@@H](Cc1ccc(O)cc1)C(=O)N[C@@H](CCCNC(=N)N)C(=O)N[C@H](C(=O)N[C@@H](CC(C)C)C(=O)N[C@@H](CCC(=O)O)C(=O)N[C@@H](CCC(=O)O)C(=O)N[C@@H](CO)C(=O)N[C@@H](CCC(N)=O)C(=O)N[C@@H](CCC(=O)O)C(=O)N[C@@H](CCC(N)=O)C(=O)N[C@@H](CCC(N)=O)C(=O)N[C@@H](CC(=O)O)C(=O)N[C@@H](CCCNC(=N)N)C(=O)N[C@@H](CC(N)=O)C(=O)N[C@@H](CCC(=O)O)C(=O)N[C@@H](CCCNC(=N)N)C(=O)N[C@@H](CC(=O)O)C(=O)N[C@@H](CC(C)C)C(=O)N[C@@H](CC(C)C)C(=O)N[C@@H](CCC(=O)O)C(N)=O)[C@@H](C)CC)[C@@H](C)CC)[C@@H](C)O` [SFT, Sifuvirtide] (Ac-SWETWEREIENYTRQIYRILEESQEQQDRNERDLLE-NH2), the results for the IC50 with wild-type HIV-1NL4-3 and in the assay on HIV-1NL4-3 pseudovirus were 1.5 ± 0.1 nM and 2.6 ± 0.1 nM, respectively.

Take `CC[C@H](C)[C@H](NC(=O)[C@H](C)NC(=O)[C@H](CCCNC(=N)N)NC(=O)[C@H](CC(=O)O)NC(=O)[C@H](Cc1c[nH]c2ccccc12)NC(=O)[C@H](C)NC(=O)[C@H](CCC(=O)O)NC(=O)[C@H](Cc1c[nH]c2ccccc12)NC(=O)[C@@H](NC(=O)[C@@H](NC(C)=O)[C@@H](C)O)[C@@H](C)O)C(=O)N[C@@H](C)C(=O)N[C@@H](CCC(=O)O)C(=O)N[C@@H](Cc1ccc(O)cc1)C(=O)N[C@@H](C)C(=O)N[C@@H](C)C(=O)N[C@@H](CCCNC(=N)N)C(=O)N[C@H](C(=O)N[C@@H](CCC(=O)O)C(=O)N[C@@H](C)C(=O)N[C@@H](CC(C)C)C(=O)N[C@H](C(=O)N[C@@H](CCCNC(=N)N)C(=O)N[C@@H](C)C(=O)N[C@@H](C)C(=O)N[C@@H](CCC(N)=O)C(=O)N[C@@H](CCC(=O)O)C(=O)N[C@@H](CCC(N)=O)C(=O)N[C@@H](CCC(N)=O)C(=O)N[C@@H](CCC(=O)O)C(=O)N[C@@H](CCCCN)C(=O)N[C@@H](CC(N)=O)C(=O)N[C@@H](CCC(=O)O)C(=O)N[C@@H](C)C(=O)N[C@@H](C)C(=O)N[C@@H](CC(C)C)C(=O)N[C@@H](CCCNC(=N)N)C(=O)N[C@@H](CCC(=O)O)C(=O)N[C@@H](CC(C)C)C(N)=O)[C@@H](C)CC)[C@@H](C)CC` [T2635]: the IC50 in the assay on HIV-1NL4-3 pseudovirus was 1.1 ± 0.1 nM.

As for enfuvirtide, the IC50 with HIV-1 NL4-3 WT is 52.1 ± 8.5 nM; with wild-type HIV-1NL4-3, 48.6 ± 1.2 nM; in the assay on HIV-1 NL4-3 Q40H, 1320 ± 92.3 nM; in the assay with HIV-1 NL4-3 V38A, 1840 ± 56.1 nM; in the assay with HIV-1 NL4-3 D36S/V38M, 203 ± 12.6 nM; with HIV-1 NL4-3 N43K, 367 ± 47.4 nM. For the same molecule, the values for the concentration for half-maximal inhibition (IC50) in the assay with HIV-1 NL4-3 V38M, in the assay on HIV-1 NL4-3 I37T and with HIV-1 NL4-3 I37T/N43K were 378 ± 41.7 nM, 552 ± 123 nM and greater than 2250 nM, respectively.

As usually defined, the IC50 is the midpoint of a concentration-inhibition curve.
